What follows are compounds tested against T1, FAK enzyme (6 His tagged kinase domain, GenBank NP—722560) (Homo sapiens, UniProt Q05397) (assay: In vitro enzyme assay (a): sandwich ELISA of FAK tyrosine kinase activity on polyGAT peptide, TMB colorimetric endpoint). Settings: in vitro Enzyme Assay test (a); ATP at Km; geometric mean of n > 1 measurements, values marked * tested once.
T1 construct: 6 His; made in house; host or cells: insect cell culture infected with baculovirus
Assay type: biochemical
Protocol: (a) In Vitro Enzyme Assay
A sandwich ELISA assay with a 3,3′,5,5′-tetramethyl benzidine (TMB) colorimetric endpoint was used in order to determine the level of effect of selected compounds on inhibition of FAK protein tyrosine kinase enzyme activity. A synthetic tyrosine containing peptide is coated onto a plastic surface, the level of phosphorylation of these tyrosine residues by the kinase enzyme in the presence of inhibitors is measured using an antibody that binds specifically to phosphorylated tyrosine residues. The amount of antibody bound to substrate is proportional to the level of enzyme catalysis.
Assay Protocol to Identify Inhibitors of Focal Adhesion Kinase (FAK).
A PlateMate Plus™ 384 automated liquid handling unit with a 100 μl disposable tip head was used to make all the non compound reagent additions and a Tecan 384PW plate washer with 384 head was used for all wash steps. Initially Matrix 384 well polystyrene plates (Cat #:4311) were coated with 40 μl/well of a 0.0375 mg/ml solution of synthetic poly peptide (polyGAT, Sigma Cat #:P3899) dissolved in phosphate buffered saline (PBS). Plates were stored overnight at 4° C. Immediately before use the coating solution was aspirated out and each well washed with 2×100 μl of PBS+0.05% Tween 20. To remove surplus phosphate, the wells were then washed with 2×100 μl 50 mM HEPES buffer pH 7.4. Plates were blotted dry before the addition of compounds. Compounds were tested over a 12 point dose range, a Labcyte Echo 550 was used to dispense compounds in nl volumes and back fill with DMSO. The final concentration of compound in the assay was dependent on the starting concentration of compound. For a 10 mM stock compound the final assay dose ranged from 100 μM down to […]. Control wells containing 120 nl DMSO (Max) or 120 nl of 10 mM staurosporine (LC Laboratories, Boston, USA Cat #: S-9300) (Min) were included in each plate. 10 ul of 5% dimethyl sulfoxide v/v (DMSO, Fisher Scientific) was added to each well immediately prior to addition of 10 μl of a co-factor solution containing 80 mM MgCl2 (Sigma Cat #: M1028); 80 mM MnCl2 (Sigma Cat #: M1787); ATP at a concentration calculated to enable the initial reaction velocity to progress at half the maximum velocity (Km for ATP) (Sigma Cat #:A7699). A final addition of 20 μl of enzyme solution containing 100 mM HEPES pH7.4; 0.2 mM sodium vanadate (Sigma Cat #:S6508); 0.2 g/l bovine serum albumin (BSA, Sigma Cat #: A7888); 0.2 mM dithioreitol (Sigma Cat #: 5545); 0.1% Triton X100 (Sigma Cat #:X100); FAK enzyme (20 μl/ml) was made to each well to start the assay running FAK enzyme was generated from an insect culture infected with baculo virus containing the DNA sequence encoding the 6 His tagged kinase domain (GenBank NP_722560).
Plates were left at room temperature for 25 minutes before 10 μl of 500 mM ethylenediaminetetraacetic acid (EDTA) was added to stop the assay and the wells were immediately washed 3×100 μl with PBS+0.05% Tween 20. A 4G10 antibody (Millipore Cat #: 16-105; 16-184) with a directly conjugated horse radish peroxidase (HRP) was used to detect the phosphorylation of the substrate by the FAK. 40 μl of PBS+0.05% Tween 20 containing 0.5% BSA and 0.1 μl/ml antibody was added to each well and left for 1 hour at room temperature to allow the antibody to bind. After this period the wells were again washed with 3×100 μl of PBS+0.05% Tween 20. TMB (Sigma Cat #: T2885) was used as a substrate for the HRP. Phosphate-citrate buffer was made up using capsules provided by Sigma (Cat #: P4922) following the manufacturers guidelines. TMB was dissolved at a concentration of 1 mg/ml in DMSO and let down to a final concentration of 0.05 mg/ml with the phosphor-citrate buffer. 40 μl of the TMB solution was added to each assay well and left for 30 minutes for the blue colour to develop. […]

T1 sequence (Q05397 422-680 limits assumed): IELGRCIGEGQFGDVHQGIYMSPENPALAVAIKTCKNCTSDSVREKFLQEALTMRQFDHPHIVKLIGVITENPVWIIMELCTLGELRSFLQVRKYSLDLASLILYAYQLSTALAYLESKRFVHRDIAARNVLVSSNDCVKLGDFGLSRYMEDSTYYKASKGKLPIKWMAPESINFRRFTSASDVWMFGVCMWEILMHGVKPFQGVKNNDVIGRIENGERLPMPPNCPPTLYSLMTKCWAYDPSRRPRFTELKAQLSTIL

Row | SMILES | IC50
1 | Cc1cc(Nc2cc(Nc3cccc4c3C(=O)N(C)CC4)c(Cl)cn2)nn1C [Example 3.30, 8-[[5-chloro-2-[(1,5-dimethylpyrazol-3-yl)amino]-4-pyridyl]amino]-2-methyl-3,4-dihydroisoquinolin-1-one] | 59 nM
2 | CC(=O)N1CCC(n2cc(Nc3cc(Nc4cccc5c4C(=O)N(C)CC5)c(Cl)cn3)cn2)CC1 [Example 3.31, 8-[[2-[[1-(1-acetyl-4-piperidyl)pyrazol-4-yl]amino]-5-chloro-4-pyridyl]amino]-2-methyl-3,4-dihydroisoquinolin-1-one] | 171 nM
3 | Cc1nn(C)cc1Nc1cc(Nc2cccc3c2C(=O)N(C)CC3)c(Cl)cn1 [Example 3.32, 8-[[5-chloro-2-[(1,3-dimethylpyrazol-4-yl)amino]-4-pyridyl]amino]-2-methyl-3,4-dihydroisoquinolin-1-one] | 9 nM
4 | CN1CCc2cccc(Nc3cc(Nc4cnn(C5CCNCC5)c4)ncc3Cl)c2C1=O [Example 3.33, 8-[[5-Chloro-2-[[1-(4-piperidyl)pyrazol-4-yl]amino]-4-pyridyl]amino]-2-methyl-3,4-dihydroisoquinolin-1-one] | 191 nM
5 | CN1CCc2cccc(Nc3cc(Nc4cnn(C5CCCNC5)c4)ncc3Cl)c2C1=O (centres unmarked) [Example 3.34, 8-[[5-chloro-2-[[1-(3-piperidyl)pyrazol-4-yl]amino]-4-pyridyl]amino]-2-methyl-3,4-dihydroisoquinolin-1-one] | 160 nM
6 | Cc1nn(C)cc1Nc1cc(Nc2cccc3c2C(=O)N(C)C3)c(Cl)cn1 [Example 3.35, 7-[[5-Chloro-2-[(1,3-dimethylpyrazol-4-yl)amino]-4-pyridyl]amino]-2-methyl-isoindolin-1-one] | 36 nM
7 | CNC(=O)c1cc(N2CCN(C)CC2)ccc1Nc1cc(Nc2cc(C)n(C)n2)ncc1Cl [Example 3.36, 2-[[5-Chloro-2-[(1,5-dimethylpyrazol-3-yl)amino]-4-pyridyl]amino]-N-methyl-5-(4-methylpiperazin-1-yl)benzamide] | 249 nM
8 | CNC(=O)c1cc(N2CCN(C)CC2)ccc1Nc1cc(Nc2cn(C)nc2C)ncc1Cl [Example 3.37, 2-[[5-chloro-2-[(1,3-dimethylpyrazol-4-yl)amino]-4-pyridyl]amino]-N-methyl-5-(4-methylpiperazin-1-yl)benzamide] | 1050 nM
9 | Cc1nn(C)cc1Nc1cc(Nc2ccc(N3CCN(C(C)C)CC3)c3c2C(=O)N(C)C3)c(Cl)cn1 [Example 3.38, 7-[[5-Chloro-2-[(1,3-dimethylpyrazol-4-yl)amino]-4-pyridyl]amino]-4-(4-isopropylpiperazin-1-yl)-2-methyl-isoindolin-1-one] | 36 nM
10 | CNC(=O)c1cccc(F)c1Nc1cc(Nc2cn(C)nc2C)ncc1Cl [Example 3.39, 2-[[5-Chloro-2-[(1,3-dimethylpyrazol-4-yl)amino]-4-pyridyl]amino]-3-fluoro-N-methyl-benzamide] | 55 nM
11 | CNC(=O)c1c(F)cccc1Nc1cc(Nc2cn(C)nc2C)ncc1Cl [Example 3.40, 2-[[5-Chloro-2-[(1,3-dimethylpyrazol-4-yl)amino]-4-pyridyl]amino]-6-fluoro-N-methyl-benzamide] | 122 nM
12 | CNC(=O)c1cc(F)ccc1Nc1cc(Nc2cn(C)nc2C)ncc1Cl [Example 3.41, 2-[[5-chloro-2-[(1,3-dimethylpyrazol-4-yl)amino]-4-pyridyl]amino]-5-fluoro-N-methyl-benzamide] | 87 nM
13 | CNC(=O)c1ccc(F)cc1Nc1cc(Nc2cn(C)nc2C)ncc1Cl [Example 3.42, 2-[[5-chloro-2-[(1,3-dimethylpyrazol-4-yl)amino]-4-pyridyl]amino]-4-fluoro-N-methyl-benzamide] | 5 nM
14 | CNC(=O)c1ccccc1Nc1cc(Nc2cnn(CC(=O)N3CCCC3)c2)ncc1F [Example 4.01, 2-[[5-Fluoro-2-[[1-(2-oxo-2-pyrrolidin-1-yl-ethyl)pyrazol-4-yl]amino]-4-pyridyl]amino]-N-methyl-benzamide] | 1510 nM
15 | CNC(=O)c1ccccc1Nc1cc(Nc2cnn(CC(=O)N(C)C3CCN(C)CC3)c2)ncc1F [Example 4.02, 2-[[5-fluoro-2-[[1-[2-[methyl-(1-methyl-4-piperidyl)amino]-2-oxo-ethyl]pyrazol-4-yl]amino]-4-pyridyl]amino]-N-methyl-benzamide] | 1320 nM
16 | CNC(=O)c1ccccc1Nc1cc(Nc2cnn(CC(=O)N(C)CCOC)c2)ncc1F [Example 4.03] | 2120 nM
17 | CNC(=O)c1ccccc1Nc1cc(Nc2cnn(CC(=O)N3CCCN(C)CC3)c2)ncc1F [Example 4.04, 2-[[5-fluoro-2-[[1-[2-(4-methyl-1,4-diazepan-1-yl)-2-oxo-ethyl]pyrazol-4-yl]amino]-4-pyridyl]amino]-N-methyl-benzamide] | 967 nM
18 | CNC(=O)c1ccccc1Nc1cc(Nc2cnn(CC(=O)N3CCOCC3)c2)ncc1F [Example 4.05, 2-[[5-fluoro-2-[[1-(2-morpholino-2-oxo-ethyl)pyrazol-4-yl]amino]-4-pyridyl]amino]-N-methyl-benzamide] | 1300 nM
19 | CNC(=O)c1ccccc1Nc1cc(Nc2cnn(CC(=O)N3CCC(N(C)C)CC3)c2)ncc1F [Example 4.06, 2-[[2-[[1-[2-(4-dimethylamino-1-piperidyl)-2-oxo-ethyl]pyrazol-4-yl]amino]-5-fluoro-4-pyridyl]amino]-N-methyl-benzamide] | 1050 nM
20 | CNC(=O)c1ccccc1Nc1cc(Nc2cnn(CC(=O)N3CCN(C)CC3)c2)ncc1F [Example 4.07, 2-[[5-fluoro-2-[[1-[2-(4-methylpiperazin-1-yl)-2-oxo-ethyl]pyrazol-4-yl]amino]-4-pyridyl]amino]-N-methyl-benzamide] | 577 nM
21 | CNC(=O)c1ccccc1Nc1cc(Nc2cnn(C)c2)ncc1F [Example 4.08, 2-[[5-Fluoro-2-[(1-methylpyrazol-4-yl)amino]-4-pyridyl]amino]-N-methyl-benzamide] | 2190 nM
22 | CNC(=O)c1ccccc1Nc1cc(Nc2cnn(C3CCOCC3)c2)ncc1F [Example 4.09, 2-[[5-fluoro-2-[(1-tetrahydropyran-4-ylpyrazol-4-yl)amino]-4-pyridyl]amino]-N-methyl-benzamide] | 3380 nM
23 | CNC(=O)c1ccccc1Nc1cc(Nc2cn(C)nc2C)ncc1F [Example 4.10, 2-[[2-[(1,3-dimethylpyrazol-4-yl)amino]-5-fluoro-4-pyridyl]amino]-N-methyl-benzamide] | 1770 nM
24 | CNC(=O)c1ccccc1Nc1cc(Nc2cnn(C3CCN(C)CC3)c2)ncc1F [Example 4.11, 2-[[5-fluoro-2-[[1-(1-methyl-4-piperidyl)pyrazol-4-yl]amino]-4-pyridyl]amino]-N-methyl-benzamide] | 2080 nM
25 | Cc1nn(C)cc1Nc1cc(Nc2cccc3c2C(=O)N(C)CC3)c(F)cn1 [Example 4.12, 8-[[2-[(1,3-Dimethylpyrazol-4-yl)amino]-5-fluoro-4-pyridyl]amino]-2-methyl-3,4-dihydroisoquinolin-1-one] | 121 nM
26 | CN1CCc2cccc(Nc3cc(Nc4cnn([C@@H]5CCC(=O)NC5)c4)ncc3F)c2C1=O [Example 4.13, 8-[[5-fluoro-2-[[1-[(3R)-6-oxopiperidin-3-yl]pyrazol-4-yl]amino]pyridin-4-yl]amino]-2-methyl-3,4-dihydroisoquinolin-1-one] | 1030 nM

Source: US8569298B2, “Pyridine compounds” (Astrazeneca AB, priority 2008, dated 2013)
